Laboratory results as given in patent US20240000872A1, “NOVEL BACTERIOPHAGE THAT LYSES ACINETOBACTER GENUS BACTERIA HAVING RESISTANCE TO ANTIBIOTICS” (priority 2020, published 2024).

System: Acinetobacter baumannii strains
Assay: Antibiotic susceptibility test (CLSI disk diffusion test method, read per CLSI 2016); note: key: ‘S’ means susceptible; ‘I’ means intermediate; ‘R’ means resistant
Assay type: cell-based

SMILES: CN(C)c1cc(NC(=O)CNC(C)(C)C)c(O)c2c1C[C@H]1C[C@H]3[C@H](N(C)C)C(O)=C(C(N)=O)C(=O)[C@@]3(O)C(O)=C1C2=O [Tigecycline, tigecycline]
- antibiotic susceptibility class (host strain YMC14/01/C29): S
- antibiotic susceptibility class (host strain YMC14/01/IP122): S
- antibiotic susceptibility class (host strain YMC14/01/L8): S
- antibiotic susceptibility class (host strain YMC14/01/P31): S
- antibiotic susceptibility class (host strain YMC14/01/P117): S
- antibiotic susceptibility class (host strain YMC14/01/P224): I
- antibiotic susceptibility class (host strain YMC14/01/P727): R
- antibiotic susceptibility class (host strain YMC14/01/P728): S
- antibiotic susceptibility class (host strain YMC14/01/R130): S
- antibiotic susceptibility class (host strain YMC14/01/R160): S
- antibiotic susceptibility class (host strain YMC14/01/R198): S
- antibiotic susceptibility class (host strain YMC14/01/R257): S
- antibiotic susceptibility class (host strain YMC14/01/R270): S
- antibiotic susceptibility class (host strain YMC14/01/R324): S
- antibiotic susceptibility class (host strain YMC14/01/R443): S
- antibiotic susceptibility class (host strain YMC14/01/R451): S
- antibiotic susceptibility class (host strain YMC14/01/R560): R
- antibiotic susceptibility class (host strain YMC14/01/R617): S
- antibiotic susceptibility class (host strain YMC14/01/R671): S
- antibiotic susceptibility class (host strain YMC14/01/R732): R
- antibiotic susceptibility class (host strain YMC14/01/R767): S
- antibiotic susceptibility class (host strain YMC14/01/R904): S
- antibiotic susceptibility class (host strain YMC14/01/R905): S
- antibiotic susceptibility class (host strain YMC14/01/R921): S
- antibiotic susceptibility class (host strain YMC14/01/R941): R
- antibiotic susceptibility class (host strain YMC14/01/R958): R
- antibiotic susceptibility class (host strain YMC14/01/R1006): S
- antibiotic susceptibility class (host strain YMC14/01/R1199): S
- antibiotic susceptibility class (host strain YMC14/01/R1659): S
- antibiotic susceptibility class (host strain YMC14/01/R1722): S
- antibiotic susceptibility class (host strain YMC14/01/R1752): S
- antibiotic susceptibility class (host strain YMC14/01/R2429): S
- antibiotic susceptibility class (host strain YMC14/01/R2572): I
- antibiotic susceptibility class (host strain YMC14/01/R2855): S
- antibiotic susceptibility class (host strain YMC14/01/R2945): S
- antibiotic susceptibility class (host strain YMC14/01/R3007): S
- antibiotic susceptibility class (host strain YMC14/01/R3129): I
- antibiotic susceptibility class (host strain YMC14/01/R3317): S
- antibiotic susceptibility class (host strain YMC14/01/R3474): S
- antibiotic susceptibility class (host strain YMC14/01/R3574): S
- antibiotic susceptibility class (host strain YMC14/01/U313): R
- antibiotic susceptibility class (host strain YMC14/01/U318): S
- antibiotic susceptibility class (host strain YMC14/02/L18): S
- antibiotic susceptibility class (host strain YMC14/02/P47): I
- antibiotic susceptibility class (host strain YMC14/02/R1860): I
- antibiotic susceptibility class (host strain YMC14/02/R2417): S
- antibiotic susceptibility class (host strain YMC14/02/R2599): S
- antibiotic susceptibility class (host strain YMC14/02/R2668): R
- antibiotic susceptibility class (host strain YMC14/02/R2758): R
- antibiotic susceptibility class (host strain YMC14/02/R2781): S
- antibiotic susceptibility class (host strain YMC14/02/R3106): S
- antibiotic susceptibility class (host strain YMC14/02/R3419): R
- antibiotic susceptibility class (host strain YMC14/02/U1607): S
- antibiotic susceptibility class (host strain YMC14/03/L9): S
- antibiotic susceptibility class (host strain YMC14/03/P471): S
- antibiotic susceptibility class (host strain YMC14/03/R122): R
- antibiotic susceptibility class (host strain YMC14/03/R217): S
- antibiotic susceptibility class (host strain YMC14/03/R380): R
- antibiotic susceptibility class (host strain YMC14/03/R618): S
- antibiotic susceptibility class (host strain YMC14/03/R2144): S
- antibiotic susceptibility class (host strain YMC14/03/U4616): S
- antibiotic susceptibility class (host strain YMC14/04/R1078): S
- antibiotic susceptibility class (host strain YMC14/04/R1080): S
- antibiotic susceptibility S/I/R (host strain YMC14/06/R2359): S
- susceptibility category (S/I/R) (host strain YMC14/06/R2359): S
- antibiotic susceptibility S/I/R (host strain YMC14/08/R1169): R
- susceptibility category (S/I/R) (host strain YMC14/08/R1169): R
- antibiotic susceptibility S/I/R (host strain YMC14/08/T90): S
- susceptibility category (S/I/R) (host strain YMC14/08/T90): S
- susceptibility category (S/I/R) (host strain YMC15/02/R436): I
- antibiotic susceptibility S/I/R (host strain YMC15/02/T28): S
- susceptibility category (S/I/R) (host strain YMC15/02/T28): S
- antibiotic susceptibility S/I/R (host strain YMC15/03/R1604): S
- susceptibility category (S/I/R) (host strain YMC15/03/R1604): S
- susceptibility category (S/I/R) (host strain YMC15/09/R1869): I
- antibiotic susceptibility S/I/R (host strain YMC16/01/P11): S
- susceptibility category (S/I/R) (host strain YMC16/01/P11): S
- antibiotic susceptibility S/I/R (host strain YMC16/01/R123): S
- susceptibility category (S/I/R) (host strain YMC16/01/R123): S
- antibiotic susceptibility S/I/R (host strain YMC16/01/R198): S
- susceptibility category (S/I/R) (host strain YMC16/01/R198): S
- antibiotic susceptibility S/I/R (host strain YMC16/01/R353): S
- susceptibility category (S/I/R) (host strain YMC16/01/R353): S
- antibiotic susceptibility S/I/R (host strain YMC16/01/R380): S
- susceptibility category (S/I/R) (host strain YMC16/01/R380): S
- antibiotic susceptibility S/I/R (host strain YMC16/01/R397): S
- susceptibility category (S/I/R) (host strain YMC16/01/R397): S
- antibiotic susceptibility S/I/R (host strain YMC16/01/R405): R
- susceptibility category (S/I/R) (host strain YMC16/01/R405): R
- susceptibility category (S/I/R) (host strain YMC16/03/R4461): I
- antibiotic susceptibility S/I/R (host strain YMC16/05/R2210): S
- susceptibility category (S/I/R) (host strain YMC16/05/R2210): S
- antibiotic susceptibility S/I/R (host strain YMC16/07/R2512): S
- susceptibility category (S/I/R) (host strain YMC16/07/R2512): S
- antibiotic susceptibility S/I/R (host strain YMC16/09/R2471): S
- susceptibility category (S/I/R) (host strain YMC16/09/R2471): S
- antibiotic susceptibility S/I/R (host strain YMC16/10/R2537): S
- susceptibility category (S/I/R) (host strain YMC16/10/R2537): S
- antibiotic susceptibility S/I/R (host strain YMC16/12/B11422): S
- susceptibility category (S/I/R) (host strain YMC16/12/B11422): S
- antibiotic susceptibility S/I/R (host strain YMC16/12/B11449): S
- susceptibility category (S/I/R) (host strain YMC16/12/B11449): S
- antibiotic susceptibility S/I/R (host strain YMC16/12/B13325): S
- susceptibility category (S/I/R) (host strain YMC16/12/B13325): S
- antibiotic susceptibility S/I/R (host strain YMC16/12/P503): S
- susceptibility category (S/I/R) (host strain YMC16/12/P503): S
- susceptibility category (S/I/R) (host strain YMC16/12/R4637): I
- antibiotic susceptibility S/I/R (host strain YMC17/01/B8053): R
- susceptibility category (S/I/R) (host strain YMC17/01/B8053): R
- antibiotic susceptibility S/I/R (host strain YMC17/01/B10087): S
- susceptibility category (S/I/R) (host strain YMC17/01/B10087): S
- antibiotic susceptibility S/I/R (host strain YMC17/01/B12075): S
- susceptibility category (S/I/R) (host strain YMC17/01/B12075): S
- antibiotic susceptibility S/I/R (host strain YMC17/01/B13454): S
- susceptibility category (S/I/R) (host strain YMC17/01/B13454): S
- antibiotic susceptibility S/I/R (host strain YMC17/01/P518): S
- susceptibility category (S/I/R) (host strain YMC17/01/P518): S
- susceptibility category (S/I/R) (host strain YMC17/01/R2812): I
- antibiotic susceptibility S/I/R (host strain YMC17/02/B14): S
- susceptibility category (S/I/R) (host strain YMC17/02/B14): S
- antibiotic susceptibility S/I/R (host strain YMC17/02/B87): S
- susceptibility category (S/I/R) (host strain YMC17/02/B87): S
- antibiotic susceptibility S/I/R (host strain YMC17/02/B721): S
- susceptibility category (S/I/R) (host strain YMC17/02/B721): S
- antibiotic susceptibility S/I/R (host strain YMC17/02/B4039): S
- susceptibility category (S/I/R) (host strain YMC17/02/B4039): S
- antibiotic susceptibility S/I/R (host strain YMC17/02/B4520): S
- susceptibility category (S/I/R) (host strain YMC17/02/B4520): S
- antibiotic susceptibility S/I/R (host strain YMC17/02/B4864): S
- susceptibility category (S/I/R) (host strain YMC17/02/B4864): S
- antibiotic susceptibility S/I/R (host strain YMC17/02/B8414): R
- susceptibility category (S/I/R) (host strain YMC17/02/B8414): R
- antibiotic susceptibility S/I/R (host strain YMC17/02/P523): S
- susceptibility category (S/I/R) (host strain YMC17/02/P523): S
- susceptibility category (S/I/R) (host strain YMC17/02/R541): I
- antibiotic susceptibility S/I/R (host strain YMC17/02/R2392): S
- susceptibility category (S/I/R) (host strain YMC17/02/R2392): S
- antibiotic susceptibility S/I/R (host strain YMC17/03/B4730): R
- susceptibility category (S/I/R) (host strain YMC17/03/B4730): R
- antibiotic susceptibility S/I/R (host strain YMC17/03/B5000): S
- susceptibility category (S/I/R) (host strain YMC17/03/B5000): S
- antibiotic susceptibility S/I/R (host strain YMC17/03/P971): R
- susceptibility category (S/I/R) (host strain YMC17/03/P971): R
- antibiotic susceptibility S/I/R (host strain YMC17/03/R348): S
- susceptibility category (S/I/R) (host strain YMC17/03/R348): S
- susceptibility category (S/I/R) (host strain YMC17/03/R585): I
- antibiotic susceptibility S/I/R (host strain YMC17/03/R1888): R
- susceptibility category (S/I/R) (host strain YMC17/03/R1888): R
- antibiotic susceptibility S/I/R (host strain YMC17/03/R3279): S
- susceptibility category (S/I/R) (host strain YMC17/03/R3279): S
- antibiotic susceptibility S/I/R (host strain YMC17/03/R4077): R
- susceptibility category (S/I/R) (host strain YMC17/03/R4077): R
- antibiotic susceptibility S/I/R (host strain YMC17/03/R4607): S
- susceptibility category (S/I/R) (host strain YMC17/03/R4607): S
- antibiotic susceptibility S/I/R (host strain YMC17/04/R488): S
- susceptibility category (S/I/R) (host strain YMC17/04/R488): S
- antibiotic susceptibility S/I/R (host strain YMC17/04/R640): R
- susceptibility category (S/I/R) (host strain YMC17/04/R640): R
- susceptibility category (S/I/R) (host strain YMC/17/05/R1095): I
